Data from ChEMBL document CHEMBL3596170, “Synthesis of 1H-1,2,3-triazole linked aryl(arylamidomethyl) - dihydrofurocoumarin hybrids and analysis of their cytotoxicity” (2015).

Key:
Type in all cases: functional
[1] = Cytotoxicity against human CEM13 cells assessed as cell death after 72 hrs by MTT assay
MT4 = test: Cytotoxicity against human MT4 cells assessed as cell death after 72 hrs by MTT assay
U-937 = test: Cytotoxicity against human U937 cells assessed as cell death after 72 hrs by MTT assay

SMILES | CTD50 [1] [µM] | CTD50 (MT4) [µM] | CTD50 (U-937) [µM]
CC(C)C1(N=[N+]=[N-])Oc2cc3oc(=O)ccc3cc2C1=O (configuration not stated) | 49 | 50 | 53
CC(C)C1(N=[N+]=[N-])Oc2c(cc3ccc(=O)oc3c2CN2CCN(C)CC2)C1=O (configuration not stated) | 58 | 62 | 45
CC(C)C1(n2cc(-c3ccccc3)nn2)Oc2cc3oc(=O)ccc3cc2C1=O (configuration not stated) | 51 | 70 | 31
COc1ccc(-c2cn(C3(C(C)C)Oc4cc5oc(=O)ccc5cc4C3=O)nn2)c(OC)c1OC (configuration not stated) | 32 | 27 | 45
COc1cc(-c2cn(C3(C(C)C)Oc4cc5oc(=O)ccc5cc4C3=O)nn2)ccc1OCc1ccccc1 (configuration not stated) | 25 | 28 | 28
CC(C)C1(n2cc(-c3ccc4c(c3)OCCO4)nn2)Oc2cc3oc(=O)ccc3cc2C1=O (configuration not stated) | 15 | 11 | 8
CC(C)C1(n2cc(-c3cc([N+](=O)[O-])ccc3O)nn2)Oc2cc3oc(=O)ccc3cc2C1=O (configuration not stated) | 21 | 11 | 20
CC(C)C1(n2cc(CNC(=O)c3cc(O)cc(O)c3)nn2)Oc2cc3oc(=O)ccc3cc2C1=O (configuration not stated) | 16 | 22 | 23
COc1cc(C(=O)NCc2cn(C3(C(C)C)Oc4cc5oc(=O)ccc5cc4C3=O)nn2)ccc1O (configuration not stated) | 9 | 10 | 8
COc1cc(OC)cc(C(=O)NCc2cn(C3(C(C)C)Oc4cc5oc(=O)ccc5cc4C3=O)nn2)c1 (configuration not stated) | 18 | 19 | 45
CC(C)C1(n2cc(CNC(=O)c3cc(O)c(O)c(O)c3)nn2)Oc2cc3oc(=O)ccc3cc2C1=O (configuration not stated) | 11 | 12 | 20
CC(C)C1(n2cc(CNC(=O)c3ccc(N)cc3O)nn2)Oc2cc3oc(=O)ccc3cc2C1=O (configuration not stated) | 17 | 13 | 24
COc1ccc(/C=C/C(=O)NCc2cn(C3(C(C)C)Oc4cc5oc(=O)ccc5cc4C3=O)nn2)c(OC)c1 (configuration not stated) | 30 | 22 | 25
CC(C)C1(n2cc(-c3ccccc3)nn2)Oc2c(cc3ccc(=O)oc3c2CN2CCN(C)CC2)C1=O (configuration not stated) | 32 | 33 | 25
CC(C)C1(n2cc(-c3ccc4c(c3)OCCO4)nn2)Oc2c(cc3ccc(=O)oc3c2CN2CCN(C)CC2)C1=O (configuration not stated) | 10 | 13 | 10
CC(C)C1(n2cc(-c3cc([N+](=O)[O-])ccc3O)nn2)Oc2c(cc3ccc(=O)oc3c2CN2CCN(C)CC2)C1=O (configuration not stated) | 11 | 11 | 17
COc1ccc(/C=C/C(=O)NCc2cn(C3(C(C)C)Oc4c(cc5ccc(=O)oc5c4CN4CCN(C)CC4)C3=O)nn2)c(OC)c1 (configuration not stated) | 16 | 13 | 16
COc1cccc2c1C(=O)c1c(O)c3c(c(O)c1C2=O)C[C@@](O)(C(=O)CO)C[C@@H]3O[C@H]1C[C@H](N)[C@H](O)[C@H](C)O1 [DOXORUBICIN] | 7.4 | 3.4 | 0.2
COc1c(C(C)C)oc2cc3oc(=O)ccc3cc12 [PEUCEDANIN] | 81 | 67 | 58
